The values that follow come from ChEMBL document CHEMBL5506000, “Design, synthesis and antibacterial evaluation of low toxicity amphiphilic-cephalosporin derivatives” (Eur J Med Chem, 2024).

One may read the MIC as the lowest concentration that inhibits growth of the organism. As a reminder, the HC50 is the concentration that lyses half of the red blood cells. For orientation: MIC50 means the lowest concentration that inhibits either 50% of growth or 50% of the strains tested, depending on the study. In general, CC50 refers to the concentration giving 50% cytotoxicity.

SMILES strings stand for the structures. In brackets after ≈: the same amount, converted by molar mass. Activity calls are given as the source filed them. The calls are words filed in the database; no cut-off is given here. Some results are limits rather than exact numbers.

Series [1] concerns Staphylococcus aureus. Kind of series: Drug resistance, ratio of MIC for Staphylococcus aureus measured after 20 days to MIC for Staphylococcus aureus. It is filed as functional.
For series [2], the system named is Staphylococcus aureus. As to the kind of experiment: Resistance development in 20 day passaged Staphylococcus aureus assessed as cefotaxime antibacterial activity. It is filed as functional, organism-based.
Series [3] concerns Staphylococcus aureus. As to the kind of experiment: Drug resistance, ratio of MIC for Staphylococcus aureus measured after 7 days to MIC for Staphylococcus aureus. In kind it is functional.
Series [4] concerns Staphylococcus aureus. As to the kind of experiment: Antibacterial activity against Staphylococcus aureus measured after 20 days. It is filed as functional. To be noted: 480 h, time 20 day.
Series [5] deals with Staphylococcus aureus. Kind of series: Resistance development in 20 day passaged Staphylococcus aureus assessed as beta-lactam antibacterial activity. In kind it is functional, organism-based.
In series [6] the test system is Staphylococcus aureus. Kind of series: Resistance development in 20 day passaged Staphylococcus aureus assessed as ciprofloxacin antibacterial activity. It is filed as functional, organism-based.
Series [7] concerns Staphylococcus aureus. Kind of series: Resistance development in 20 day passaged Staphylococcus aureus assessed as levofloxacin antibacterial activity. It is filed as functional, organism-based.
Series [8] deals with Staphylococcus aureus. Kind of series: Resistance development in 20 day passaged Staphylococcus aureus assessed as ampicillin antibacterial activity. In kind it is functional, organism-based.
The test system of series [9] is Staphylococcus aureus. As to the kind of experiment: Antibacterial activity against Staphylococcus aureus assessed as inhibition of metabolic activity at MIC. In kind it is functional.
The test system of series [10] is Staphylococcus aureus. As to the kind of experiment: Post-antibiotic effect against Staphylococcus aureus at 1 times of MIC incubated for 1 hrs. In kind it is functional.
Series [11] concerns Staphylococcus aureus. Kind of series: Drug resistance, ratio of MIC for Staphylococcus aureus measured after 10 days to MIC for Staphylococcus aureus. In kind it is functional.
Series [12] has as its system Stenotrophomonas maltophilia. As to the kind of experiment: Antibacterial activity against Stenotrophomonas maltophilia ATCC 17808 by CLSI protocol based assay. It is filed as functional.
Series [13] has as its system Staphylococcus aureus. As to the kind of experiment: Antibacterial activity against methicillin resistant Staphylococcus aureus clinical isolates. It is filed as functional.
The subject of series [14] is Cell membrane. Kind of series: Induction of inner membrane permeabilization in Staphylococcus aureus assessed as increase in fluorescence intensity at 16 microg/ml by PI staining based analysis. In kind it is cell membranes. To be noted: dose 16.0 µg/ml.
The subject of series [15] is Staphylococcus aureus. Kind of series: Antibacterial activity against Staphylococcus aureus ATCC 29213 by CLSI protocol based assay. In kind it is functional.
Series [16] is described as follows: Hemolytic activity in sheep RBC. In kind it is toxicity, cell-based, Ovis aries, Erythrocyte. To be noted: sheep red blood cells (erythrocytes).
Series [17] has as its system Staphylococcus aureus. As to the kind of experiment: Antibacterial activity against methicillin resistant Staphylococcus aureus clinical isolates assessed as 50% inhibition of bacterial growth. It is filed as functional.
The subject of series [18] is Escherichia coli. Kind of series: Induction of morphological changes in Escherichia coli assessed as cell elongation at 8 times of MIC incubated for 6 hrs by scanning electron microscopic analysis. It is filed as functional, organism-based.
Series [19] relates to Staphylococcus aureus. Kind of series: Antibacterial activity against early exponential growth phase Staphylococcus aureus assessed as reduction in bacterial colony at 8 times of MIC measured at 8 to 24 hrs by time-kill kinetics assay. In kind it is functional, organism-based. To be noted: time 8-24 hrs.
Series [20] relates to Staphylococcus aureus. Kind of series: Antibacterial activity against Staphylococcus aureus assessed as reduction in metabolic activity at sub-MIC. In kind it is functional, organism-based.
In series [21] the test system is Staphylococcus aureus. As to the kind of experiment: Antibacterial activity against Staphylococcus aureus measured after 3 to 6 hrs in presence of 50% plasma. In kind it is functional, organism-based. To be noted: time 3-6 hrs.
Series [22] deals with Escherichia coli. Kind of series: Antibacterial activity against Escherichia coli ATCC 25922 by CLSI protocol based assay. It is filed as functional.
Series [23] deals with Staphylococcus aureus. As to the kind of experiment: Post-antibiotic effect against Staphylococcus aureus at 4 times of MIC incubated for 1 hrs. In kind it is functional.
A short description of series [24]: Cytotoxicity against HUVEC assessed as reduction in cell viability by CCK-8 assay. It is filed as toxicity, cell-based. To be noted: human, HUVEC cells.
Series [25] has as its system Cell membrane. Kind of series: Induction of cell membrane depolarization in Staphylococcus aureus assessed as increase in fluorescence intensity at 16 microg/ml by DiSC3(5) dye based assay. It is filed as cell membranes. As to conditions: dose 16.0 µg/ml.
Series [26] is described as follows: Cytotoxicity against rat HBZY-1 cells assessed as reduction in cell viability by CCK-8 assay. It is filed as toxicity, cell-based. In general terms: Tetrazolium assays rely on reduction of a dye to a coloured formazan, in cell work by metabolically active cells.
The subject of a further series is Enterococcus faecalis. As to the kind of experiment: Antibacterial activity against Enterococcus faecalis ATCC 29212 by CLSI protocol based assay. It is filed as functional.
Series [27] is described as follows: Cytotoxicity against HUVEC assessed as viable cells at 128 microg/ml incubated for 48 hrs by CCK-8 assay relative to control. In kind it is toxicity, cell-based. To be noted: human, at 128 µg/mL, read-out: Activity.
For series [28], the system named is Staphylococcus aureus. As to the kind of experiment: Drug resistance, ratio of MIC for Staphylococcus aureus measured within 20 days to MIC for Staphylococcus aureus. In kind it is functional.
For series [29], the system named is Cell membrane. Kind of series: Induction of cell membrane damage in Staphylococcus aureus assessed as protein leakage at 8 to 32 microg/ml. In kind it is cell membranes. As to conditions: dose 8-32 µg/ml.
Series [30] can be described thus: Hemolytic activity in sheep RBC assessed as hemolysis rate at 1280 microg/ml relative to control. It is filed as toxicity, cell-based, Ovis aries, Erythrocyte. To be noted: sheep red blood cells (erythrocytes), dose 1280 µg/ml, read-out: Activity.
Series [31] can be described thus: Cytotoxicity against rat HBZY-1 cells assessed as viable cells at 128 microg/ml incubated for 48 hrs by CCK-8 assay relative to control. It is filed as toxicity, cell-based. As to conditions: at 128 µg/mL, read-out: Activity.
The test system of series [32] is Cell membrane. As to the kind of experiment: Induction of cell membrane damage in Staphylococcus aureus assessed as nucleic acid leakage at 8 to 32 microg/ml by absorbance based analysis. It is filed as cell membranes. To be noted: dose 8-32 µg/ml.
The subject of series [33] is Staphylococcus aureus. Kind of series: Antibacterial activity against Staphylococcus aureus in presence of 50% serum. In kind it is functional.
Series [34] concerns Staphylococcus aureus. As to the kind of experiment: Antibacterial activity against Staphylococcus aureus in presence of 50% plasma. In kind it is functional.

`CCn1cc(C(=O)O)c(=O)c2cc(F)c(N3CCNCC3)cc21` [NORFLOXACIN]: the Ratio in the series with Staphylococcus aureus [1] was determined as 64; in the series with Staphylococcus aureus [3], 16. The result in the series with Staphylococcus aureus [2], in the series on Staphylococcus aureus [5], with Staphylococcus aureus [6], in the series on Staphylococcus aureus [7] and in the series with Staphylococcus aureus [8] was inactive. This compound had an MIC against Staphylococcus aureus [4] of 64 µg/mL (≈ 200 µM).

For the compound `CO/N=C(\C(=O)N[C@@H]1C(=O)N2C(C(=O)[O-])=C(C[n+]3ccccc3)CS[C@H]12)c1csc(N)n1.O=C(O)C(F)(F)F`, the results for the Ratio with Staphylococcus aureus [1] and in the series with Staphylococcus aureus [11] were 32 and 8, respectively. In addition, the result with Staphylococcus aureus [2], in the series on Cell membrane [14], in the series with Staphylococcus aureus [5], in the series on Staphylococcus aureus [6], with Staphylococcus aureus [7] and in the series with Staphylococcus aureus [8] was inactive. Also, in the series on Cell membrane [25], the result was inactive. Besides, in the series with Staphylococcus aureus [9], the “inhibition (INH)” value is on record as roughly 100%. The PAE with Staphylococcus aureus [10] was 1.48 h; in the series with Staphylococcus aureus [23] it was 2.1 h. In addition, the MIC in series [12] amounted to 0.063 µg/mL; against Staphylococcus aureus [13], 2 µg/mL; in the series on Staphylococcus aureus [15], 1 µg/mL; against Escherichia coli [22] it was 0.063 µg/mL; in the series on Enterococcus faecalis it was 4 µg/mL. Also, in series [16], the HC50 is greater than 1280 µg/mL. The MIC50 in the series with Staphylococcus aureus [17] turned out to be 2 µg/mL. Also, the outcome in the series on Escherichia coli [18], with Staphylococcus aureus [19], in the series with Staphylococcus aureus [20] and in the series on Staphylococcus aureus [21] was Active. In addition, the CC50 in series [24] and in series [26] was greater than 128 µg/mL throughout.

`CCCCCCCCNC(=O)c1ccc[n+](CC2=C(C(=O)[O-])N3C(=O)[C@@H](NC(=O)/C(=N\OC)c4csc(N)n4)[C@H]3SC2)c1.O=C(O)C(F)(F)F`: the result with Staphylococcus aureus [2], in the series with Staphylococcus aureus [5], in the series on Escherichia coli [18], in the series with Staphylococcus aureus [6], in the series on Staphylococcus aureus [7] and with Staphylococcus aureus [20] was Active. The outcome in the series with Staphylococcus aureus [21] and in the series on Staphylococcus aureus [8] was Active. The figures for the viability at 48 h, 128 microg/ml in series [27] and in [31] were 100% and 92.6%, respectively. Also, the Ratio in the series with Staphylococcus aureus [28] is given as less than 4. Also, the “inhibition (INH)” value in the series with Staphylococcus aureus [9] was roughly 100%. The PAE came to 1.58 h with Staphylococcus aureus [10] and 2.08 h with Staphylococcus aureus [23]. For the same compound, the MIC was determined as 8 µg/mL in series [12]; 2 µg/mL against Staphylococcus aureus [13]; 0.5 µg/mL with Staphylococcus aureus [15]; 8 µg/mL in the series on Escherichia coli [22]; 0.5 µg/mL in the series on Staphylococcus aureus [33]; 1 µg/mL in the series on Staphylococcus aureus [34]. The lowest concentration to inhibit growth with Enterococcus faecalis (MIC) was 4 µg/mL. Besides, the result in the series with Cell membrane [14], in the series on Cell membrane [29], with Cell membrane [32] and in the series on Cell membrane [25] was inactive. Besides, the HC50 in [16] is greater than 1280 µg/mL. The MIC50 in the series with Staphylococcus aureus [17] came to 2 µg/mL. For the same compound, in [30], the hemolysis at 1280 microg/ml came out at 2.85%. Moreover, the CC50 in series [24] and in series [26] was greater than 128 µg/mL throughout.
